Measurements from patent US20190337971A1, “PANTETHEINE DERIVATIVES FOR THE TREATMENT OF NEUROLOGIC DISORDERS” (Retrophin, Inc., priority 2016, published 2019).

Key:
[1] = Stability of compounds in human hepatocytes; assay type: in vitro ADME; settings: cryopreserved human hepatocytes in suspension, 37° C., 0-240 min
Procedure: (§1) Stability in hepatocytes for select compounds disclosed in the application was evaluated in two species (mouse and human) according to the following procedure. Compounds and positive control samples were dissolved in 100% DMSO at 5 mM. Cryopreserved hepatocytes were thawed and resuspended in Hepatocyte Basal Medium (HBM-Lonza CC-3199) supplemented with CC-4182 (complete hepatocyte culture medium). Test compounds were diluted into cell suspension (1 million cells/ml) from the stock solutions to have a test compound concentration of 5 μM (0.1% DMSO). Incubation was performed in 24-well plates, at 37° C. in a DUBNOFF water bath, under low shaking. Each compound was tested at 6 time points, in duplicates (0, 15, 30, 60, 120, and 240 min). At each time point, an aliquot of 120 μl was taken and transferred to a 96-well deep plate. The reaction was stopped with the addition of one volume of 100% acetonitrile plus 0.1% formic acid and the appropriate internal standard. Samples then were centrifuged at 1100×g for 30 min at +4° C. and supernatants were transferred to a new 96-deepwell plate. Samples were evaporated under N2 and reconstituted in H2O/ACN 0.1% formic Acid (98:2). Analysis was performed without a calibration curve (Acquity UPLC-Waters; Sciex API4000). Time 0 was obtained adding acetonitrile before addition of the test compound. Stability was determined based on analysis of disappearance of the compounds as a function of incubation time. Quantification of test compounds was measured as a peak area relative to an internal standard. The elimination constant, k, is calculated by plotting mean disappearance values on a semi-logarithmic scale and fitting with a best fit linear regression. The half-life (t1/2) expressed in hours was derived using Equation 1:
(§2) t1/2=ln 2/(−k). Equation 1: […]

[2] = Stability of compounds in mouse hepatocytes; assay type: in vitro ADME; settings: cryopreserved mouse hepatocytes in suspension, 37° C., 0-240 min
Procedure: as §1, §2

[3] = Stability in human plasma; assay type: in vitro ADME; settings: 37° C., up to 60 min
Procedure: The stability of selected compounds in human plasma was evaluated according to the following protocol. Compounds and positive control samples were dissolved in 100% DMSO at 3 mM. To investigate the stability of the test compounds in plasma, samples were made by diluting test compounds into plasma from the stock solutions to obtain a test compound concentration of 3 μM (0.1% DMSO). Before addition of a test compound, 990 μl of plasma were preincubated at 37° C. for 5 min in eppendorf. After addition of a test compound, 70 μl for each time point were transferred to a 96-deepwell plate, previously warmed at 37° C. in a DUBNOFF water bath. Each compound was tested at five time points, in duplicate (10, 20, 30, 40 and 60 min). At each time point, an aliquot of 50 μl was taken and transferred to a new 96-deepwell plate, and the reaction was stopped with 200 μl of 100% acetonitrile containing 0.1% formic acid and the appropriate internal standard. Then samples were centrifuged at 1100×g for 30 min at +4° C. and supernatants were transferred to a new 96-deepwell plate. Samples were evaporated under N2 and reconstituted in H2O/ACN 0.1% formic Acid (98:2). Analysis was performed without a calibration curve (Acquity UPLC-Waters; SciexAPI4000). Time 0 was obtained by adding acetonitrile before addition of the test compound.
(§3) Stability was determined based on analysis of disappearance of the compounds as a function of incubation time. Quantification of test compounds was measured as a peak area relative to an internal standard. The elimination constant k and half-life (t1/2) were determined as described above in Example 7.

[4] = Stability in human whole blood; assay type: in vitro ADME; settings: 37° C., up to 60 min
Procedure: The stability of selected compounds in human whole blood was evaluated according to the following protocol. Compounds and positive control samples were dissolved in 100% DMSO at 3 mM (stock solution). To investigate the stability of the test compounds in whole blood, a 200 μM working solution (WS) in water has been prepared by adding 66.66 μl of each 3 mM stock solution to 933.34 μl of water (6.66% DMSO content). After pre-incubation of the whole blood at 37° C. for 5 min in an eppendorf, 10.5 μl of each working solution were spiked into 689.5 μl of heated blood. The obtained 3 μM solution in blood (0.1% DMSO content) was quickly stirred and 100 μl for each time point were transferred to an eppendorf. Each compound was tested in duplicate at five time points (10, 20, 30, 40 and 60 min). At each time point, the reaction was stopped by quenching the spiked blood (100 μl) with 400 μl of 100% acetonitrile containing 0.1% formic acid. Then samples were centrifuged at 15600 rpm for 15 min at +4° C. and 200 μl of supernatant were transferred to a 96-deepwell plate. Samples were evaporated under N2 and reconstituted in H2O/ACN 0.1% formic Acid (98/2 v/v) containing the appropriate internal standard. Analysis was performed without a calibration curve by using an Acquity-UPLC (Waters) coupled to a triple quadrupole mass spectrometer (SciexAPI4000). Time point 0 was obtained by adding 3 μL of each 200 μM working solution to 997 μL of the supernatant obtaining after centrifugation (15600 rpm for 15 min at +4° C.) of the blank matrix quenched with acetonitrile containing 0.1% formic acid.
as §3

[5] = tested on: PANK2−/− IMR32 cells; experiment: Coenzyme A assay in PANK2 silenced cells (LC-MS quantification of free CoA); assay type: cell-based, human; settings: Homo sapiens, IMR-32; compound concentration 50 uM; fold increase in CoA levels relative to controls; treated twice, 24 h + 24 h
[6] = Diastereoisomer A (upfield shift in 31P NMR), read-out: t1/2 (h) Human Hepatocytes Diastereoisomer A (converted)
[7] = Diastereoisomer A (upfield shift in 31P NMR), read-out: t1/2 (h) Mouse Hepatocytes Diastereoisomer A (converted)
[8] = Diastereoisomer A (upfield shift in 31P NMR), read-out: t1/2 (h) Human Plasma Diastereoisomer A (converted)

SMILES	half-life at 5 μM [1, 6]	half-life at 5 μM [2, 7]	half-life at 3 μM [3, 8]	half-life at 3 μM ([4]; Diastereoisomer A (upfield shift in 31P NMR), read-out: t1/2 (h) Human Whole Blood Diastereoisomer A (converted))	half-life at 3 μM ([4]; Diastereoisomer B, read-out: t1/2 (h) Human Whole Blood Diastereoisomer B (converted))	fold induction at 50 µM [5]	half-life at 5 μM ([1]; Diastereoisomer B, read-out: t1/2 (h) Human Hepatocytes Diastereoisomer B (converted))	half-life at 5 μM ([2]; Diastereoisomer B, read-out: t1/2 (h) Mouse Hepatocytes Diastereoisomer B)	half-life at 3 μM ([3]; Diastereoisomer B, read-out: t1/2 (h) Human Plasma Diastereoisomer B (converted))
CC(=O)SCCNC(=O)CCNC(=O)[C@@H]1O[P@@](=O)(OCOC(=O)C(C)(C)C)OCC1(C)C [R1002, (((2S,4R)-4-((3-((2-(acetylthio)ethyl)amino)-3-oxopropyl)carbamoyl)-5,5-dimethyl-2-oxido-1,3,2-dioxaphosphinan-2-yl)oxy)methyl pivalate]	< 0.25 h	< 0.25 h	0.72 h						
CC(=O)SCCNC(=O)CCNC(=O)[C@@H]1OP(=O)(OCOC(=O)NCCOC(=O)C(C)(C)C)OCC1(C)C (stereo partly drawn) [R1008, 2-((((((4R)-4-((3-((2-(acetylthio)ethyl)amino)-3-oxopropyl)carbamoyl)-5,5-dimethyl-2-oxido-1,3,2-dioxaphosphinan-2-yl)oxy)methoxy)carbonyl)amino)ethyl pivalate]	0.29 h	< 0.25 h		0.5 h	0.23 h	41.2	< 0.25 h	< 0.25 h	
CC(=O)SCCNC(=O)CCNC(=O)[C@@H]1OP(=O)(N[C@@H](C)C(=O)OCCc2ccccc2)OCC1(C)C (stereo partly drawn) [R1001, phenethyl ((4R)-4-((3-((2-(acetylthio)ethyl)amino)-3-oxopropyl)carbamoyl)-5,5-dimethyl-2-oxido-1,3,2-dioxaphosphinan-2-yl)-L-alaninate]			> 1 h			3.5			0.36 h
